Data published in patent US8435997B2, “Cysteine prodrugs to treat schizophrenia and drug addiction” (Marquette University, priority 2007, dated 2013).

Key:
[1] = tested on: cocaine-induced reinstatement; assay: Extinction/reinstatement paradigm, cocaine-induced reinstatement of lever pressing; type: in vivo; conditions: rats, cocaine 10 mg/kg IP
From the text: The extinction/reinstatement paradigm represents one of the most common paradigms used to screen for potential anticraving properties of novel pharmacotherapies. In the present experiments, rats were implanted with indwelling jugular catheters with an external port affixed slightly posterior to the rat's shoulder blades. Tubing is used to connect a syringe of cocaine to the external port of the indwelling catheter. Rats are then placed into standard operant chambers (Med Associates) and permitted to press a lever for an infusion of cocaine (0.5 mg/kg/200 microL, IV). Once behavior is stable, rats are permitted at least eleven 2-hr sessions to self-administer cocaine. Afterwards, the cocaine solution is replaced with saline in order to extinguish lever pressing. Once responding decreases to 10 or fewer lever presses/2 hr sessions for 3 out of 4 daily sessions, rats are tested for reinstatement (relapse). To do this, rats are placed into the operant chamber and vehicle or a cysteine/cystine prodrug (1-60 mg/kg, p.o.; N=2-12) is administered. Afterwards, rats then receive an injection of cocaine (10 mg/kg, IP). Responding is then assessed for 120 min.

[2] = tested on: PCP-evoked deficits in pre-pulse inhibition; assay: Prepulse inhibition of startle response, phencyclidine (PCP)-induced sensorimotor gating deficits; type: in vivo, rats; conditions: for sensorimotor gating (inhibition of startle response by pre-pulse) after PCP: rats, 30 mg/kg po, 60 min prior to PCP 1 mg/kg SC, pre-pulse 2-15 db above background, FIG. 2
[3] = tested on: extracellular glutamate in the prefrontal cortex; assay: Extracellular glutamate in the prefrontal cortex compared to baseline after prodrug administration; type: in vivo; conditions: rats; compound 7 30 mg/kg po (N=1) versus N-acetylcysteine 60 mg/kg IP (N=4); FIG. 1
Method: FIG. 1 is a bar graph depicting extracellular glutamate in the prefrontal cortex (compared to baseline) following administration of cysteine prodrugs N-acetylcysteine (60 mg/kg, IP; N=4) or compound 7 (30 mg/kg, po; N=1) in rats. […] Compound 7 was given to the animal orally, and thereby subjected to potential first-pass metabolism. Conversely, N-acetylcysteine was given IP in order to avoid extensive first pass metabolism that would occur following oral administration. Thus, compound 7 produced a larger relative increase in glutamate in rats as compared to NAC even though NAC was given in its preferred route of administration and at twice the concentration.

In the case of `CC(=O)N[C@@H](CS)C(=O)O` [N-acetylcysteine], the “cocaine-induced reinstatement (responding)” value (from here on “cocaine-induced reinstatement”) ([1]; 30 and 60 mg/kg IP, responding over 120 min, FIG. 8) is reported as “significant reduction in cocaine-induced reinstatement”, the “cocaine-induced reinstatement” value ([1]; given orally, FIG. 9) is reported as “less effective when given orally” and the “restoration of inhibition of a startle response after PCP” value ([2]; infused directly into the rodent prefrontal cortex, 0-100 microM, FIG. 5) is reported as “significantly restored inhibition of a startle response at each concentration tested”. For the same molecule, the “restoration of sensorimotor gating after PCP” value ([2]; intraperitoneal injection 60 min prior to testing, three prepulse stimulus intensities, FIG. 4) was “failed to significantly restore sensorimotor gating at any of the three prepulse stimulus intensities”, the “attenuation of deficits in prepulse inhibition produced by phencyclidine” value ([2]; oral administration 60 min prior to testing, FIG. 3) was “fails to significantly attenuate deficits in prepulse inhibition” and the “sensorimotor gating (inhibition of startle response by pre-pulse) after PCP” value [2] was “trend toward improved sensorimotor gating (p=0.1)”.
With `CCOC1=NC(CSSCC2N=C(OCC)CN=C2OCC)C(OCC)=NC1` (centres unmarked) [Compound 6, Bis[(3,6-Diethoxy-2,5-dihydro-pyrazin-2-yl)-methanethiol]] the “restoration of sensorimotor gating after PCP” value ([2]; oral administration (0-1 mg/kg) 60 min prior to testing, prepulse 2, 6, 15 dB above background, FIG. 7) was “significantly restored sensorimotor gating at the highest prepulse intensity”.
`CCOC1=NC(CS)C(OCC)=NC1` (centres unmarked) [Compound 5, (3,6-Diethoxy-2,5-dihydro-pyrazin-2-yl)-methanethiol] was tested, and the “cocaine-induced reinstatement” value ([1]; 1 mg/kg p.o., FIG. 9) was “sufficient to block cocaine-induced reinstatement” and the “sensorimotor gating as assessed by inhibition of a startle response after PCP” value ([2]; 1 mg/kg orally 60 min prior to testing, PCP 0-1.25 mg/kg SC, FIG. 6) was “significant increase in sensorimotor gating”.
With `O=C1CNC(=O)[C@H](CSSC[C@H]2NC(=O)CNC2=O)N1` [Compound 7, Bis[2,5-Piperazinedione, 3-(mercaptomethyl)-]] the “peak increase in extracellular glutamate in the prefrontal cortex (compared to baseline)” value [3] was “much larger peak increase in glutamate” and the “sensorimotor gating (inhibition of startle response by pre-pulse) after PCP” value [2] was “significant improvement in sensorimotor gating relative to PCP controls and rats receiving NAC+PCP”.
